Data published in ChEMBL document CHEMBL3576796, “A Broad Anti-influenza Hybrid Small Molecule That Potently Disrupts the Interaction of Polymerase Acidic Protein-Basic Protein 1 (PA-PB1) Subunits” (J Med Chem, 2015).
Values after ≈ are worked out from the molar mass of the structure shown. Active and inactive are the calls of the source. The calls are words filed in the database; no cut-off is given here.

Tests used:
Liver microsome = assay: Metabolic stability in human liver microsomes assessed as cytochrome-mediated metabolism after 30 mins by HPLC-MS/MS analysis; assay type: ADME; settings: 0.5 h
Influenza A virus [1] = assay type: functional, organism-based; settings: A/Puerto Rico/8/1934(H1N1), MDCK, 48 h
[2] = Cytotoxicity against human HEK293T cells assessed as decrease in cell viability by MTT assay; assay type: cell-based, HEK-293T
[3] = Cytotoxicity against MDCK cells assessed as decrease in cell viability by MTT assay; assay type: cell-based, Canis lupus familiaris; settings: dog
[4] = target: PA/PB1 (Influenza A virus (A/Puerto Rico/8/1934(H1N1)), UniProt P03431+P03433)
Influenza A virus [5] = assay type: functional, organism-based; settings: A/Puerto Rico/8/1934(H1N1), HEK-293T, 50 uM
[6] = Equilibrium solubility of the compound in phosphate buffer at pH 7.4 after 1 hr; assay type: physicochemical
[7] = Permeability of the compound assessed as passive diffusion from donor compartment to acceptor compartment after 18 hrs by PAMPA assay; assay type: physicochemical; settings: read-out: Peff
[8] = Permeability of the compound assessed as membrane drug retention after 18 hrs by PAMPA assay; assay type: physicochemical; design: concentration or dose not given beside the values
Influenza A virus [9] = assay type: functional, organism-based; settings: A/Puerto Rico/8/1934(H1N1), MDCK, 48 h; remark: listed apart in the source
[10] = Antiviral activity against Influenza A virus A/Solomon Island/3/06 (H1N1) assessed as reduction in plaque formation after 48 hrs by plaque reduction assay; assay type: functional, Influenza A virus (A/Solomon Islands/3/2006(H1N1))
[11] = Antiviral activity against Influenza A virus A/Wisconsin/67/05 (H3N2) assessed as reduction in plaque formation after 48 hrs by plaque reduction assay; assay type: functional, Influenza A virus (A/Wisconsin/67/2005(H3N2))
Influenza B virus [12] = assay: Antiviral activity against Influenza B virus B/Lee/40 assessed as reduction in plaque formation after 48 hrs by plaque reduction assay; assay type: functional, organism-based; settings: B/Lee/1940, 48 h
Influenza B virus [13] = assay: Antiviral activity against Influenza B virus B/Malaysia/2506/04 assessed as reduction in plaque formation after 48 hrs by plaque reduction assay; assay type: functional; settings: B/Malaysia/2506/2004, 48 h
Influenza B virus [14] = assay: Antiviral activity against Influenza B virus B/Bangladesh/333/07 assessed as reduction in plaque formation after 48 hrs by plaque reduction assay; assay type: functional, organism-based; settings: B/Bangladesh/333/07, 48 h
Influenza A virus [15] = assay type: functional, organism-based; settings: A/Puerto Rico/8/1934(H1N1), HEK-293T, 50 uM; remark: listed apart in the source
Influenza A virus [16] = assay type: functional, organism-based; settings: A/Puerto Rico/8/1934(H1N1), HEK-293T, 50 uM; remark: listed apart in the source
Influenza A virus [17] = assay type: functional, organism-based; settings: A/Puerto Rico/8/1934(H1N1), HEK-293T, 50 uM; remark: listed apart in the source

| Compound | Drug metabolism (Liver microsome) | EC50 (Influenza A virus [1]) | CC50 [2] | CC50 [3] | IC50 [4] | also measured |
| --- | --- | --- | --- | --- | --- | --- |
| CC1=CC(c2ccccc2)n2nc(NC(=O)c3ccc([N+](=O)[O-])cc3)nc2N1 (stereo unspecified) | metabolite_notdetected | > 100 µM | > 250 µM | > 250 µM | 75 µM |  |
| CCOc1ccc(C(=O)Nc2nc3n(n2)C(c2ccccc2)C=C(C)N3)cc1 (stereo unspecified) | metabolite_notdetected | 100 µM | 237 µM | > 250 µM | 139 µM |  |
| CC1=CC(c2ccccc2)n2nc(NC(=O)CCc3ccccc3)nc2N1 (stereo unspecified) | metabolite_notdetected | > 100 µM | 223 µM | > 250 µM | 100 µM |  |
| Cc1cc(-c2ccccc2)n2nc(NC(=O)c3ccccc3)nc2n1 | metabolite_notdetected | > 100 µM | > 250 µM | > 250 µM | > 200 µM |  |
| CCCCc1ccc(C(=O)Nc2nc3n(n2)C(c2ccccc2)C=C(C)N3)cc1 (stereo unspecified) | metabolite_notdetected | 100 µM | > 250 µM | > 250 µM | 48 µM |  |
| CC1=CC(c2ccccc2)n2nc(NC(=O)c3ccc(OC(C)C)cc3)nc2N1 (stereo unspecified) | metabolite_notdetected | > 100 µM | > 250 µM | > 250 µM | 75 µM |  |
| Nc1ccc(O)c2c1C(=O)c1c(N)ccc(O)c1C2=O |  | 14.5 µM | > 250 µM |  | 20.3 µM |  |
| Cc1cc(-c2ccccc2)nc2nc(C(=O)Nc3ccccc3)nn12 | metabolite_notdetected | 40 µM | > 250 µM | > 250 µM | 128 µM |  |
| COC(=O)C1=C(N)N(c2cccc(Cl)c2C)C2=C(C(=O)CCC2)C1c1ccc2c(c1)OCO2 (stereo unspecified) |  | 12.2 µM | > 1000 µM |  | 30.4 µM |  |
| CC1=CC(c2ccccc2)n2nc(NC(=O)c3ccc(-c4ccccc4)cc3)nc2N1 (stereo unspecified) | metabolite_notdetected | 28 µM | 155 µM | > 193 µM | > 200 µM |  |
| N#CC(c1ccc(Cl)cc1)c1c(Cl)cc(-n2ncc(=O)[nH]c2=O)cc1Cl (stereo unspecified) [DICLAZURIL] |  | 31 µM |  |  |  |  |
| CC1=CC(c2ccccc2)n2nc(NC(=O)c3cccc(F)c3)nc2N1 (stereo unspecified) | metabolite_notdetected | > 100 µM | 220 µM | > 250 µM | 156 µM |  |
| CCCOc1ccc(C(=O)Nc2nc3nc(C)cc(-c4ccccc4)n3n2)cc1 | metabolite_notdetected | > 100 µM | 95 µM | > 72 µM | > 200 µM |  |
| CCc1oc2ccccc2c1C(=O)c1cc(Br)c(O)c(Br)c1 [BENZBROMARONE] |  | 39 µM |  |  |  |  |
| Cc1cc(-c2ccccc2)n2nc(C(=O)Nc3ccccc3)nc2n1 | metabolite_notdetected | 42 µM | 110 µM | > 250 µM | 160 µM |  |
| O=[N+]([O-])c1ccc(Oc2ccc(-n3cc(CO)nn3)cc2)c2nonc12 |  | 1 µM | 40 µM |  | 35 µM |  |
| CC1=CC(c2ccccc2)n2nc(NC(=O)c3ccccc3F)nc2N1 (stereo unspecified) | metabolite_notdetected | > 100 µM | > 250 µM | > 250 µM | 185 µM |  |
| Cc1cc(-c2ccccc2)n2nc(C(=O)Nc3sc4c(c3C(N)=O)CCCCC4)nc2n1 | metabolite_notdetected | 21 µM | > 250 µM | > 250 µM | 1.1 µM | Activity (Influenza A virus [5]): inactive; solubility thermodynamic at 1 h [6]: 13 µg/mL (≈ 29.1 µM); Papp at 18 h [7]: 0.61 ×10⁻⁶ cm/s; Activity [8]: 45%; EC50 (Influenza A virus [9]): 21 µM; EC50 [10]: 23 µM; EC50 [11]: 7 µM; EC50 (Influenza B virus [12]): 24 µM; EC50 (Influenza B virus [13]): 17 µM; EC50 (Influenza B virus [14]): 11 µM; Activity (Influenza A virus [15]): Active; Activity (Influenza A virus [16]): Active; Activity (Influenza A virus [17]): Active |
| NC(=O)c1ncn([C@@H]2O[C@H](CO)[C@@H](O)[C@H]2O)n1 [RIBAVIRIN] |  |  | > 250 µM | > 250 µM |  |  |
